Values joined by “and” are separate entries in the source; they are usually repeats but may differ in a detail not shown here. Identical values can stand only once.
Details: Liquid

CCOC(C)(C)CC [1,1-dimethylpropyl ethyl ether]
Details | vapor or sublimation pressure [kPa]
274.2 K | 1.413
276.2 K | 1.614
278.2 K | 1.821
280.2 K | 2.055
282.2 K | 2.341
284.2 K | 2.67
287.2 K | 3.214
290.2 K | 3.744
293.2 K | 4.439
296.2 K | 5.272
299.2 K | 6.128
302.2 K | 7.186

CCCOC(C)(C)CC [1,1-dimethylpropyl propyl ether]
Details | vapor or sublimation pressure [kPa]
274.2 K | 0.4002
276.2 K | 0.4448
278.1 K | 0.5329
280.2 K | 0.6121
282.2 K | 0.7161
284.2 K | 0.7938
285.1 K | 0.8034
287.3 K | 0.9974
290.3 K | 1.199
293.3 K | 1.434
296.2 K | 1.799
299.2 K | 2.072
302.2 K | 2.332

CCC(C)(C)OC [2-methoxy-2-methylbutane]
Details | vapor or sublimation pressure [kPa]
274.2 K | 2.693
276.2 K | 2.998
278.2 K | 3.315
280.2 K | 3.8
282.8 K | 4.422
283.8 K | 4.678
287.8 K | 5.69
292.9 K | 7.603
297.8 K | 9.142
302.8 K | 12.31
307.8 K | 14.55

CCCCOC(C)(C)CC(C)(C)C [butyl 1,1,3,3-tetramethylbutyl ether]
Details | vapor or sublimation pressure [kPa]
278.3 K | 0.0128
281.3 K | 0.0165
284.3 K | 0.0206
287.3 K | 0.0269
290.3 K | 0.0324
293.3 K | 0.0413
296.3 K | 0.053
299.2 K | 0.0654
302.2 K | 0.0797
305.2 K | 0.1003
308.2 K | 0.1155
311.2 K | 0.1474
314.2 K | 0.1741

CCCCOC(C)(C)CC [butyl 1,1-dimethylpropyl ether]
Details | vapor or sublimation pressure
274.2 K | 0.1111 kPa
276.2 K | 0.1278 kPa
278.2 K | 0.1602 kPa and 0.1508 kPa
281.3 K | 0.1842 kPa
283.2 K | 0.2344 kPa and 0.2179 kPa
285.2 K | 0.2509 kPa
286.2 K | 0.2632 kPa
288.2 K | 0.3232 kPa
290.2 K | 0.3551 kPa
293.2 K | 0.4784 kPa and 0.4372 kPa
296.2 K | 0.5522 kPa
298.2 K | 0.6658 kPa and 0.6132 kPa
301.2 K | 0.7443 kPa
303.2 K | 0.901 kPa
304.2 K | 0.9012 kPa
308.2 K | 1.199 kPa

CCOC(C)(C)CC(C)(C)C [ethyl 1,1,3,3-tetramethylbutyl ether]
Details | vapor or sublimation pressure [kPa]
274.3 K | 0.0913
277.2 K | 0.1201
280.1 K | 0.1414
283.2 K | 0.1829
286.1 K | 0.2218
289.2 K | 0.2772
292.2 K | 0.339
295.2 K | 0.4146
298.2 K | 0.5117
301.2 K | 0.6018

CC(C)COC(C)(C)C [isobutyl tert-butyl ether]
Details | vapor or sublimation pressure [kPa]
273.3 K | 0.6788
275.4 K | 0.7463
276.4 K | 0.7981
278.5 K | 0.9
278.6 K | 0.938
280.4 K | 0.9803
282.5 K | 1.207
283.5 K | 1.362
284.6 K | 1.398
287.6 K | 1.664
288.4 K | 1.769
290.6 K | 1.996
293.4 K | 2.354
293.6 K | 2.439
295.6 K | 2.686
298.4 K | 3.187
298.7 K | 3.146
301.8 K | 3.723
303.4 K | 4.026
304.8 K | 4.451
308.4 K | 5.224

COC(C)(C)CC(C)(C)C [methyl 1,1,3,3-tetramethylbutyl ether]
Details | vapor or sublimation pressure [kPa]
276.2 K | 0.1656
277.3 K | 0.1859
278.3 K | 0.1958
280.3 K | 0.2383
283.2 K | 0.2818
283.3 K | 0.2759
286.3 K | 0.356
288.1 K | 0.3919
289.3 K | 0.4126
292.3 K | 0.5102
293.3 K | 0.5636
295.2 K | 0.6069
298 K | 0.7478
298.2 K | 0.7352
301.2 K | 0.8887
303.2 K | 1.022
304.2 K | 1.07
308 K | 1.339

CCCCCCOC(C)(C)CC(C)(C)C [pentane, 2-hexoxy-2,4,4-trimethyl-]
Details | vapor or sublimation pressure [kPa]
295.8 K | 0.0053
298.8 K | 0.0069
301.9 K | 0.0086
304.9 K | 0.0111
308 K | 0.0141
311 K | 0.0162
314.1 K | 0.0215
317.1 K | 0.0255
320.1 K | 0.0321
323.1 K | 0.0406
326.2 K | 0.0502

CCCCCOC(C)(C)CC(C)(C)C [pentane, 2-pentoxy-2,4,4-trimethyl-]
Details | vapor or sublimation pressure [kPa]
277.5 K | 0.0037
279.5 K | 0.0044
281.5 K | 0.0052
283.5 K | 0.0062
285.6 K | 0.0073
288.6 K | 0.0095
291.6 K | 0.0124
294.7 K | 0.0155
297.7 K | 0.0194
300.7 K | 0.0247
303.2 K | 0.03

CCCOC(C)(C)CC(C)(C)C [pentane, 2-propoxy-2,4,4-trimethyl-]
Details | vapor or sublimation pressure [kPa]
274.3 K | 0.0336
277.3 K | 0.0443
278.2 K | 0.0491
280.2 K | 0.058
283.4 K | 0.07
286.2 K | 0.0913
289.3 K | 0.1179
292.3 K | 0.1404
294.4 K | 0.1616
296.3 K | 0.1858
297.4 K | 0.2008
297.8 K | 0.2103
298.3 K | 0.2196
299.3 K | 0.2293
300.3 K | 0.2411
301.2 K | 0.2557
302.2 K | 0.2825
303.2 K | 0.2956
304.3 K | 0.3231
305.2 K | 0.3294
306.2 K | 0.3595
307.2 K | 0.382
308.2 K | 0.3898

From the NIST ThermoML archive (doi:10.1021/je0255980)
